Entries after “also recorded” stand apart in the source; their conditions may differ.
Legend:
PC12 cells [1] = assay: Reversal of TS-induced neuroprotection by PI-3 kinase inhibitors in PC12 cells; type: cell-based, rat; set-up: neuronal viability relative to TS-F without wortmannin / neuronal viability relative to TS-F+CNTF without wortmannin: dose or concentration left out as unconfirmed
Experimental: (§1) Protection against apoptosis of PC12 cells in serum-free medium containing a test agent (agent N)(e.g., protection induced by TS, TS fragments, NGF or other growth factors), was calculated by the formula: 100%-[(apoptosis(%) of cells kept in RPMI containing test agent N÷apoptosis (%) of cells kept in RPMI)×100%]. Testing the effect of wortmannin (Sigma) and LY294002 (Sigma) in inhibiting the neuroprotection of TS was performed following the protocol described by others (Yao and Cooper, Science, 267:2003-2006 (1995); D'Mello et al., J. Neurosci 17:1548-1560 (1997)). In brief, PC12 cells were switched from growth medium to RPMI without and with TS or various other growth factors. After 24 hr, wortmannin and LY294002 were added to the cultures. After another 24 hrs, cells were examined for apoptosis by the DAPI assay, as above.

[2] = test system: peripheral blood mononuclear cells (PBMC); assay: IL-6 secretion by PBMC (ELISA); type: cell-based, human; set-up: IL-6 secretion by PBMC: dose or concentration left out as unconfirmed; conditions: 24 hrs culture
Experimental: (§2) Primary cultures of human intestinal microvascular endothelial cells (HIMEC) isolated from normal jejunal mucosa/submucosal tissue were prepared as described (Strong et al., Gastroenterology 114: 1244-1256 (1998)). The HIMEC were cultured in fibronectin-coated plasticware in MCDB medium (Sigma) supplemented with 20% FBS, 90 μg/ml heparin and 50 μg/ml endothelial cell growth factor (Sigma). T-24 cells (ATCC Accession No. HTB-4) were cultured in M199 medium supplemented with 10% FBS. PBMC were purified by Ficoll-Paque gradient as described (Current Protocols in Immunology, pp 7.1.1-7.1.2). Vero cells (ATCC Accession No. CCL-81) were grown in RPMI medium with 5% Nu serum and infected with the Silvio X-10/4 of T. cruzi as described previously (Chuenkova et al., J. Exp. Med. 181: 1693-1703, (1995)).
Endothelial cells and T-24 cells were plated on 24-well plates at a density of 1×10^3 cells/well, while peripheral blood mononuclear cells (PBMC) were plated in the similar wells at 1×10^6/well. Triplicat cultures of cells were incubated test agents for a predetermined amount of time. […] Cytokines and chemokines released in the culture supernatants were measured by ELISA assay following the instructions of the manufacturer (Endogen). The cytokines tested were IL-1β, IL-4, IL-8, IL-10, IL-12, IFN-γ, TNF-α, and the chemokines RANTES and MCP-1. Negative controls were cells incubated in medium containing polymixin B at 10 μg/ml, and positive controls were cells incubated with bacterial LPS at the low ng/ml range (for PBMC or HIMEC) or in the μg/ml range for carcinoma T-24 cells. In some experiments, IL-1β, or TNFα were used as positive control for cytokine release.
TR peptides (Table 2) were synthesized at the Tufts Synthesis Facility (Boston, Mass.). Each peptide was purified by HPLC, and the number of amino acids and molecular weight of each peptide verified by mass spectrometry. Peptides were dissolved in growth medium (10% FCS in RPMI) and added at various concentrations to 1×10^6 PBMC/well in 24-well plates. After 24 hrs, IL-6 was assayed by ELISA in the conditioned supernatants.

PC12 cells [3] = assay: Neurite outgrowth assay in PC12 cells; type: cell-based, rat
Excerpt: (§3) PC12 cells were obtained from ATCC (Manassas, Va. (Accession No. CRL-1721)) and cultured on collagen-coated dishes in RPMI 1640 supplemented with 10% horse serum and 5% fetal bovine serum (Greene, L. A. and Tishler, A. S., Proc. Natl. Acad. Sci. USA, 73: 2424-2428 (1976)). For differentiation and survival experiments, cells were washed three times in serum-free RPMI/0.2% BSA, plated in the same medium in collagen-coated plastic dishes at 2×10^5/ml, without and with growth factors, TS, recombinant proteins, synthetic peptides, for the time and concentrations indicated in the Figures.
96-well microtiter plates were coated overnight at 4° C. with the TS or peptides or fragments thereof, or with control proteins laminin (Ln) or bovine serum albumin (BSA) at 500 μg/ml. After removing the compounds, the plates were further incubated with 1% BSA for 1 hour at room temperature and immediately used as substratum for PC12 or N18 (Prasad, K. N., Biol Rev Camb Philos Soc, 66:431-451 (1991)) cells in serum-free RPMI/0.2% BSA. Neurite outgrowth was measured using a phase-contrast microscope 17 hours later.

PC12 cells [4] = assay: Trophic factor withdrawal-induced apoptosis of PC12 cells (DAPI/TUNEL); type: cell-based, rat; conditions: for inhibition of apoptosis of PC12 cells by peptides: further studies; for protection of PC12 cells from apoptosis induced by trophic factor withdrawal: 17 hours
Excerpt: as §3
Cell staining with 4,6-diamino-2-phenylindole (DAPI). Cells were fixed with 4% formaldehyde in PBS for 5 minutes, washed with PBS, stained with 10 μg/ml DAPI (Sigma) for 2 minutes, washed with PBS, and visualized under UV light using a fluorescent microscope. About 300-400 cells were examined under the microscope to determine the percentage of apoptotic cells.
Cell DNA nick end labeling (TUNEL) (Gavrieli, Y., et al., J. Cell. Biol. 119: 493-501 (1992)) assay was performed using a kit purchased from Boehringer Mannheim as described by the manufacturer.
as §1

human Schwann cells = assay: Serum withdrawal-induced apoptosis of immortalized human Schwann cells (DAPI); type: cell-based; conditions: for inhibition of apoptosis of Schwann cells by peptides: further studies
normal human neutrophils = assay: IL-6 production by normal human neutrophils; type: cell-based
[5] = test system: human intestinal microvascular endothelial cells (HIMEC); assay: IL-6 secretion by HIMEC (ELISA); type: cell-based; conditions: 24 hrs culture
Experimental: as §2
Endothelial cells and T-24 cells were plated on 24-well plates at a density of 1×10^3 cells/well, while peripheral blood mononuclear cells (PBMC) were plated in the similar wells at 1×10^6/well. Triplicat cultures of cells were incubated test agents for a predetermined amount of time. […] Cytokines and chemokines released in the culture supernatants were measured by ELISA assay following the instructions of the manufacturer (Endogen). The cytokines tested were IL-1β, IL-4, IL-8, IL-10, IL-12, IFN-γ, TNF-α, and the chemokines RANTES and MCP-1. […]

N18 cells = assay: Neurite outgrowth assay in N18 cells; type: cell-based; conditions: immobilized proteins coated at 500 μg/ml, 17 hours (FIG. 3A)
Experimental: FIG. 3A is a graph showing that neurite outgrowth in N18 cells is induced by immobilized laminin (Ln), immobilized TS and immobilized fragments of TS. Proteins were immobilized by incubating plates which contained wells filled with solutions of the proteins (protein concentration was 500 μg/ml) at 4° C. overnight. The protein solutions were removed and the plates were further incubated with 1% BSA at room temperature for one hour. N18 cells were cultured in the coated wells in serum-free RPMI-1640/0.2% BSA for 17 hours, and neurite outgrowth was measured by phase-contrast microscopy. […] Ln, laminin; TS, purified T. cruzi trans-sialidase; 7F, recombinant TS from clone 7F; 19Y, recombinant TS from clone 19Y; TS-F, recombinant fragment consisting of amino acid residues 33-666 of TS (SEQ ID NO:2); TS-CC-47, recombinant fragment consisting of amino acid residues 79-478 of TS (SEQ ID NO:2); TS-Cat-47, recombinant fragment consisting of amino acid residues 79-415 of TS (SEQ ID NO:2); BSA, bovine serum albumin.
96-well microtiter plates were coated overnight at 4° C. with the TS or peptides or fragments thereof, or with control proteins laminin (Ln) or bovine serum albumin (BSA) at 500 μg/ml. […] Neurite outgrowth was measured using a phase-contrast microscope 17 hours later.

[6] = test system: primary cultures of rat Schwann cells; conditions: reported (Weiner and Chun 1999); cited from earlier work
[7] = neurite outgrowth assay, concentration not given
[8] = synthetic peptides 1 μM, DAPI (FIG. 6B)

COC[C@H]1OC(=O)c2coc3c2[C@@]1(C)C1=C(C3=O)[C@@H]2CCC(=O)[C@@]2(C)C[C@H]1OC(C)=O [wortmannin]
neuronal viability relative to TS-F without wortmannin (PC12 cells [1]; wortmannin with TS-F): 57±2%
neuronal viability relative to TS-F+CNTF without wortmannin (PC12 cells [1]; wortmannin with TS-F+CNTF): 80±3%

DSSAHGAPSTPA [peptide TR1]
IL-6 secretion by PBMC [2]: less active

DSSAHGAPSTPADSSAHGTPSTPV [TR2]
IL-6 secretion by PBMC [2]: less active

DSSAHGAPSTPADSSAHGTPSTPVDSSAHGTPSTPA [TR3]
IL-6 secretion by PBMC [2]: less active

DSSAHGAPSTPADSSAHGTPSTPVDSSAHGTPSTPADSSAHSTPSTPA [TR4]
IL-6 secretion by PBMC [2]: active in promoting IL-6 release

DSSAHGAPSTPADSSAHGTPSTPVDSSAHGTPSTPADSSAHSTPSTPADSSAHSTPSTPA [TR5]
IL-6 secretion by PBMC [2]: active in promoting IL-6 release

DSSAHGTPSTPA [peptide TR, control peptide derived from the tandem repeat]
neurite outgrowth in PC12 cells (PC12 cells [3]; [7]): did not induce neurite outgrowth; also recorded: did not promote neurite outgrowth
inhibition of apoptosis of PC12 cells by peptides (PC12 cells [4]): did not inhibit apoptosis
inhibition of apoptosis of Schwann cells by peptides (human Schwann cells): did not inhibit apoptosis

GNASQNVWEDAYRCVNASTAN [C19Y21]
apoptosis suppressing effect of peptide in presence of PI-3 kinase inhibitor LY294002, PC12 cells (PC12 cells [4]): inhibited
inhibition of apoptosis of PC12 cells by peptides (PC12 cells [4]): potent suppressors of apoptosis
apoptosis suppressing effect of peptide in presence of PI-3 kinase inhibitor LY294002, Schwann cells (human Schwann cells): inhibited
inhibition of apoptosis of Schwann cells by peptides (human Schwann cells): potent suppressors of apoptosis

GNASQNYWEDAYRC [CYN2]
apoptosis suppressing effect of peptide in presence of PI-3 kinase inhibitor LY294002, PC12 cells (PC12 cells [4]): inhibited
inhibition of apoptosis of PC12 cells by peptides (PC12 cells [4]): suppressed apoptosis but was less active
apoptosis suppressing effect of peptide in presence of PI-3 kinase inhibitor LY294002, Schwann cells (human Schwann cells): inhibited
inhibition of apoptosis of Schwann cells by peptides (human Schwann cells): suppressed apoptosis but was less active

QPLRRQRVVVVPLSPRLVLLAFCRQRLPLKRMGGSYRCVNASTAN [peptide C44]
neurite outgrowth in PC12 cells (PC12 cells [3]; [7]): had direct neurotrophic activity; also recorded: induce dose dependent outgrowth of neurites
apoptosis suppressing effect of peptide in presence of PI-3 kinase inhibitor LY294002, PC12 cells (PC12 cells [4]): inhibited
inhibition of apoptosis of PC12 cells by peptides (PC12 cells [4]): potent suppressors of apoptosis
protection of PC12 cells from apoptosis induced by trophic factor withdrawal (PC12 cells [4]; [8]): protected PC12 cells from apoptosis
apoptosis suppressing effect of peptide in presence of PI-3 kinase inhibitor LY294002, Schwann cells (human Schwann cells): inhibited
inhibition of apoptosis of Schwann cells by peptides (human Schwann cells): potent suppressors of apoptosis

RQRLPKRMGGSYRC [peptide C14]
neurite outgrowth in PC12 cells (PC12 cells [3]; [7]): had direct neurotrophic activity; also recorded: induce dose dependent outgrowth of neurites
apoptosis suppressing effect of peptide in presence of PI-3 kinase inhibitor LY294002, PC12 cells (PC12 cells [4]): inhibited
inhibition of apoptosis of PC12 cells by peptides (PC12 cells [4]): potent suppressors of apoptosis
protection of PC12 cells from apoptosis induced by trophic factor withdrawal (PC12 cells [4]; [8]): protected PC12 cells from apoptosis
apoptosis suppressing effect of peptide in presence of PI-3 kinase inhibitor LY294002, Schwann cells (human Schwann cells): inhibited
inhibition of apoptosis of Schwann cells by peptides (human Schwann cells): potent suppressors of apoptosis

RQRLPKRMGGSYRCVNASTAH [CFN1]
neurite outgrowth in PC12 cells (PC12 cells [3]; [7]): had direct neurotrophic activity
apoptosis suppressing effect of peptide in presence of PI-3 kinase inhibitor LY294002, PC12 cells (PC12 cells [4]): inhibited
inhibition of apoptosis of PC12 cells by peptides (PC12 cells [4]): potent suppressors of apoptosis
apoptosis suppressing effect of peptide in presence of PI-3 kinase inhibitor LY294002, Schwann cells (human Schwann cells): inhibited
inhibition of apoptosis of Schwann cells by peptides (human Schwann cells): potent suppressors of apoptosis

TNF-A
IL-6 production by normal human neutrophils (normal human neutrophils): did elicit secretion of IL-6

VCNA: neuraminidase from Vibrio cholera, Calbiochem [reference compound]
neurite outgrowth in PC12 cells (PC12 cells [3]; [7]): did not induce neurite outgrowth
neurite outgrowth in PC12 cells (PC12 cells [3]; soluble in serum-free RPMI-1640/0.2% BSA, collagen coated dishes, 16 hours, NGF 0.1 μg/ml, VCNA 2.4 μg/ml, TS 1 μg/ml): does not induce neurite outgrowth
protection of PC12 cells from apoptosis induced by trophic factor withdrawal (PC12 cells [4]; serum-free RPMI-1640/0.2% BSA, DAPI or TUNEL): did not
IL-6 secretion by HIMEC [5]: did not stimulate detectable IL-6 secretion

VNASTAN [CYFN]
apoptosis suppressing effect of peptide in presence of PI-3 kinase inhibitor LY294002, PC12 cells (PC12 cells [4]): inhibited
inhibition of apoptosis of PC12 cells by peptides (PC12 cells [4]): did not inhibit apoptosis
apoptosis suppressing effect of peptide in presence of PI-3 kinase inhibitor LY294002, Schwann cells (human Schwann cells): inhibited
inhibition of apoptosis of Schwann cells by peptides (human Schwann cells): did not inhibit apoptosis

YSVDDGETWE [peptide B2, control peptide]
neurite outgrowth in PC12 cells (PC12 cells [3]; [7]): did not induce neurite outgrowth; also recorded: did not promote neurite outgrowth
inhibition of apoptosis of PC12 cells by peptides (PC12 cells [4]): did not inhibit apoptosis
inhibition of apoptosis of Schwann cells by peptides (human Schwann cells): did not inhibit apoptosis

laminin [reference compound]
neurite outgrowth in N18 cells (N18 cells): induced

lysophosphatidic acid
active dose for primary cultures of rat Schwann cells [6]: ≥ 10 nM

Reference: patent US8114412B2, “T. cruzi-derived neurotrophic agents and methods of use therefor” (priority 1999, dated 2012)
